pIC50: −log10 of the molar value.

For this test, the target named is p97 (Homo sapiens, UniProt P55072). The test can be described thus: P97 ATPase biochemical assay (ADP Glo). Conditions: 20 nM p97, 20 μM ATP, 37° C. 15 minutes. How it is done: The ATPase assay is performed according the following protocol: Purified enzyme (20 nM p97), substrate (20 μM ATP) and a dose titration of compounds are mixed in buffer (50 mM TRIS pH 7.5, 20 mM MgCl2, 0.02% TX-100, 1 mM DTT, 0.2% (v/v) glycerol) and incubated at 37° C. for 15 minutes. The reaction is terminated and the level of product generated is measured using the ADP Glo Assay Kit (Promega, Madison Wis.). Plotting product generated versus compound concentration and using a four-parameter fit model generates an IC50 value for each compounds.
Chain of p97 (P55072 whole entry, the tested form may be a part): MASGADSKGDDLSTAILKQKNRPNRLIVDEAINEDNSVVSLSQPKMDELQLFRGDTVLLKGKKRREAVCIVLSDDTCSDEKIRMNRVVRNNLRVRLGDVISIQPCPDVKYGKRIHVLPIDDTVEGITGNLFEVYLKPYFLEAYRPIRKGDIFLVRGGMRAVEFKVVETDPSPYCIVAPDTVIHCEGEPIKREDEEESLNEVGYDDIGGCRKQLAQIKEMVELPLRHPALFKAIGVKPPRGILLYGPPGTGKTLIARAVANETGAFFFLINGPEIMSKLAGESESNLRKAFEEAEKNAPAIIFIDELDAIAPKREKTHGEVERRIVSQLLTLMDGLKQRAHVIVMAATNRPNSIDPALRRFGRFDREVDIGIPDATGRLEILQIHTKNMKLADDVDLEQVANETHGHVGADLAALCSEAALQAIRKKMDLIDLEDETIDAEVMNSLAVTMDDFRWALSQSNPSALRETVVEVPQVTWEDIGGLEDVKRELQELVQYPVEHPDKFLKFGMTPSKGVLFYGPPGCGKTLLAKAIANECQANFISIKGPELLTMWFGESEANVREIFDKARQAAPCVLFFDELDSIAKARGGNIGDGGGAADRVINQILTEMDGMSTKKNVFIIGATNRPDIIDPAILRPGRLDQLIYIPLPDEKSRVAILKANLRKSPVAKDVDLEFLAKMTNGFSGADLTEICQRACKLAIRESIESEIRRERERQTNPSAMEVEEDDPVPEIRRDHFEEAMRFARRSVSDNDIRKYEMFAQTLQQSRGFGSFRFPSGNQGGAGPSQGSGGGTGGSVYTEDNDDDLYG
The p97 assay is an initial screening assay used to determine inhibitory activity of the fused pyrimidine compounds of the invention against the p97 complex. As discussed above, inhibition of activity of the p97 proteosome complex can enable apoptosis and cause elimination of neoplastic cells (cancer cells). The method follows that of Christianson in Nat.
Assay Buffer is a mixture of 50 mM TRIS pH 7.5, 20 mM MgCl2, 0.02% TX-100, 1 mM DTT and 0.2% (v/v) Glycerol. […] The identification kit is an ADP glo kit (Promega): stop buffer, detection reagent.
0.5 μL compound serial diluted in DMSO (Final Conc. 10%)
2 μL ATP (Final Conc.=20 uM, diluted in assay buffer)
2.5 μL p97 (Final Conc.=20 nM, diluted in assay buffer)
Incubate at 37 degC for 15 min.
Add 5 μL of stop buffer, incubate at RT for 40 min.
Add 10 μL of detection reagent, incubate at RT for 30 min.
Read luminescence on Envision plate reader.
Plot normalized luminescence data against log-transformed concentration values and fit to a sigmoidal curve to determine IC50 values (done in Collaborative Drug Discovery software).
Regarding `Cc1cc2c(C(=O)NC(C)C)cccc2n1-c1nc2c(c(NCc3ccccc3)n1)COCC2` [compound 99, 1-[4-(benzylamino)-5H,7H,8H-pyrano[4,3-d]pyrimidin-2-yl]-2-methyl-N-(propan-2-yl)-1H-indole-4-carboxamide], the pIC50 (usually the IC50 on a negative log10 scale, so that one unit is a factor of ten) is > 6.00.

For `Cc1cc2ccccc2n1-c1nc(NCc2ccccc2)c2cccc(C(N)=O)c2n1` [compound 17, 4-(benzylamino)-2-(2-methyl-1H-indol-1-yl)quinazoline-8-carboxamide], the pIC50 was > 6.52.

Turning to `Cc1cc2c(C(=O)N(C)C)cccc2n1-c1nc2c(c(NCc3ccccc3)n1)CCCC2` [compound 133, 1-(4-(benzylamino)-5,6,7,8-tetrahydroquinazolin-2-yl)-N,N,2-trimethyl-1H-indole-4-carboxamide], the pIC50 was > 6.00.

Regarding `N#Cc1cccc2c1nc(CN)n2-c1nc2c(c(NCc3ccccc3)n1)CCCC2` [compound 87, 2-(aminomethyl)-1-[4-(benzylamino)-5,6,7,8-tetrahydroquinazolin-2-yl]-1H-1,3-benzodiazole-4-carbonitrile], the pIC50 is > 6.00.

In the case of `Cc1cc2ccccc2n1-c1nc2c(c(NCc3ccccc3)n1)CCNC2` [compound 11, N-benzyl-2-(2-methyl-1H-indol-1-yl)-5H,6H,7H,8H-pyrido[3,4-d]pyrimidin-4-amine], the pIC50 is > 6.52.

Take `COc1cccc2c1cc(C)n2-c1nc2c(c(NCc3ccccc3)n1)CNCC2` [compound 43]: the pIC50 is > 6.00.

For the compound `COc1cc2c(C(N)=O)cccc2n1-c1nc2c(c(NCc3ccccc3)n1)CNCC2` [compound 92, 1-[4-(benzylamino)-5H,6H,7H,8H-pyrido[4,3-d]pyrimidin-2-yl]-2-methoxy-1H-indole-4-carboxamide], the pIC50 is > 6.00.

As for `CCCN1CCc2nc(-n3c(C)cc4ccccc43)nc(NCc3ccccc3)c2C1` [compound 65, N-benzyl-2-(2-methyl-1H-indol-1-yl)-6-propyl-5H,6H,7H,8H-pyrido[4,3-d]pyrimidin-4-amine], the pIC50 was > 6.00.

In the case of `COc1nc2ccccc2n1-c1nc(NCc2ccccc2)c2ncsc2n1` [compound 4, N-benzyl-5-(2-methoxy-1H-1,3-benzodiazol-1-yl)-[1,3]thiazolo[5,4-d]pyrimidin-7-amine], the pIC50 is > 7.00.

With `COCCOc1cccc2c(NCc3ccccc3)nc(-n3c(CN)cc4ccccc43)nc12` [compound 23], the pIC50 was > 6.52.

`CN(C)Cc1cc2c(C(N)=O)cccc2n1-c1nc2c(c(NCc3ccccc3)n1)COCC2` [compound 95, 1-[4-(benzylamino)-5H,7H,8H-pyrano[4,3-d]pyrimidin-2-yl]-2-[(dimethylamino)methyl]-1H-indole-4-carboxamide]: the pIC50 was > 6.00.

As to `CC(=O)N1CCc2c(nc(-n3c(C)cc4ccccc43)nc2NCc2ccccc2)C1` [compound 20, 1-[4-(benzylamino)-2-(2-methyl-1H-indol-1-yl)-5H,6H,7H,8H-pyrido[3,4-d]pyrimidin-7-yl]ethan-1-one], the pIC50 is > 7.00.

Turning to `NCc1cc2c(C(N)=O)cccc2n1-c1nc2c(c(NCc3ccccc3)n1)COCC2` [compound 86, 2-(aminomethyl)-1-[4-(benzylamino)-5H,7H,8H-pyrano[4,3-d]pyrimidin-2-yl]-1H-indole-4-carboxamide], the negative logarithm of the IC50 (pIC50) is > 7.00.

In the case of `CC(C)c1cc2c(C(N)=O)cccc2n1-c1nc2c(c(NCc3ccccc3)n1)COCC2` [compound 129, 1-[4-(benzylamino)-5H,7H,8H-pyrano[4,3-d]pyrimidin-2-yl]-2-(propan-2-yl)-1H-indole-4-carboxamide], the pIC50 is > 6.00.

For `Oc1nc2ccccc2n1-c1nc2c(c(NCc3ccccc3)n1)CCCC2` [compound 89, 1-[4-(benzylamino)-5,6,7,8-tetrahydroquinazolin-2-yl]-1H-1,3-benzodiazol-2-ol], the pIC50 was > 6.00.

As for `CC(N)c1cc2ccccc2n1-c1nc2c(c(NCc3ccccc3)n1)CCCC2` (centres unmarked) [compound 22, 2-[2-(1-aminoethyl)-1H-indol-1-yl]-N-benzyl-5,6,7,8-tetrahydroquinazolin-4-amine], the pIC50 is > 6.00.

For `COc1cccc2c(NCc3ccccc3)nc(-n3c(CN)cc4ccccc43)nc12` [compound 15, 2-[2-(aminomethyl)-1H-indol-1-yl]-N-benzyl-8-methoxyquinazolin-4-amine], the pIC50 was > 7.00.

As to `COc1cccc2c(NCc3ccccc3)nc(-c3c(C)oc4ccccc34)nc12` [compound 16, N-benzyl-8-methoxy-2-(2-methyl-1-benzofuran-3-yl)quinazolin-4-amine], the pIC50 was > 6.00.

Take `Cc1cc2ccccc2n1-c1nc(NCc2ccccc2)c2cccc(C#N)c2n1` [compound 19, 4-(benzylamino)-2-(2-methyl-1H-indol-1-yl)quinazoline-8-carbonitrile]: the pIC50 was > 6.00.

Take `CCOc1cc2c(C(N)=O)cccc2n1-c1nc2c(c(NCc3ccccc3)n1)CCCC2` [compound 135, 1-[4-(benzylamino)-5,6,7,8-tetrahydroquinazolin-2-yl]-2-ethoxy-1H-indole-4-carboxamide]: the pIC50 was > 7.52.

With `Cc1cc2c(C(=O)O)cccc2n1-c1nc2c(c(NCc3ccccc3)n1)CNCC2` [compound 117, 1-[4-(benzylamino)-5H,6H,7H,8H-pyrido[4,3-d]pyrimidin-2-yl]-2-methyl-1H-indole-4-carboxylic acid], the pIC50 was > 7.00.

For `Cc1cc2c(C(=O)NCCN(C)C)cccc2n1-c1nc2c(c(NCc3ccccc3)n1)COCC2` [compound 102, 1-[4-(benzylamino)-5H,7H,8H-pyrano[4,3-d]pyrimidin-2-yl]-N-[2-(dimethylamino)ethyl]-2-methyl-1H-indole-4-carboxamide], the pIC50 is > 6.00.

Regarding `COc1cccc2c(NCc3ccccc3)nc(-n3c(C)cc4ccccc43)nc12` [compound 8, N-benzyl-8-methoxy-2-(2-methyl-1H-indol-1-yl)quinazolin-4-amine], the pIC50 was > 7.00.

On to `Cc1nc2c(C(N)=O)cccc2n1-c1nc2c(c(NCc3ccccc3)n1)CNCC2` [compound 83, 1-[4-(benzylamino)-5H,6H,7H,8H-pyrido[4,3-d]pyrimidin-2-yl]-2-methyl-1H-1,3-benzodiazole-4-carboxamide], for which the pIC50 was > 6.00.

`Cc1cc2ccccc2n1-c1nc2c(c(NCc3ccccc3)n1)CNCC2` [compound 10, N-benzyl-2-(2-methyl-1H-indol-1-yl)-5H,6H,7H,8H-pyrido[4,3-d]pyrimidin-4-amine]: the pIC50 is > 6.52.

`Cc1cc2ccccc2n1-c1nc(NCc2ccccc2)c2cccc(CN)c2n1` [compound 2, 8-(aminomethyl)-N-benzyl-2-(2-methyl-1H-indol-1-yl)quinazolin-4-amine]: the pIC50 is > 6.00.

As for `CCN1CCc2nc(-n3c(C)cc4ccccc43)nc(NCc3ccccc3)c2C1` [compound 63, N-benzyl-6-ethyl-2-(2-methyl-1H-indol-1-yl)-5H,6H,7H,8H-pyrido[4,3-d]pyrimidin-4-amine], the pIC50 is > 6.00.

Consider `COc1cccc2c(NCc3ccccc3)nc(-n3c(OC)nc4ccccc43)nc12` [compound 1, N-benzyl-8-methoxy-2-(2-methoxy-1H-1,3-benzodiazol-1-yl)quinazolin-4-amine], for which the pIC50 was > 7.00.

As for `NC(=O)c1cccc2c1cc(C1CC1)n2-c1nc2c(c(NCc3ccccc3)n1)COCC2` [compound 131, 1-[4-(benzylamino)-5H,7H,8H-pyrano[4,3-d]pyrimidin-2-yl]-2-cyclopropyl-1H-indole-4-carboxamide], the pIC50 was > 7.52.

On to `COCCOc1cccc2c(NCc3ccccc3)nc(-n3c(CN)nc4c(C(N)=O)cccc43)nc12` [compound 88, 2-(aminomethyl)-1-[4-(benzylamino)-8-(2-methoxyethoxy)quinazolin-2-yl]-1H-1,3-benzodiazole-4-carboxamide], for which the pIC50 is > 6.00.

On to `Cc1cc2c(F)cccc2n1-c1nc2c(c(NCc3ccccc3)n1)CNCC2` [compound 41, N-benzyl-2-(4-fluoro-2-methyl-1H-indol-1-yl)-5H,6H,7H,8H-pyrido[4,3-d]pyrimidin-4-amine], for which the pIC50 was > 6.52.

In the case of `Cc1cc2c(-c3nnn[nH]3)cccc2n1-c1nc2c(c(NCc3ccccc3)n1)COCC2` [compound 120, N-benzyl-2-[2-methyl-4-(1H-1,2,3,4-tetrazol-5-yl)-1H-indol-1-yl]-5H,7H,8H-pyrano[4,3-d]pyrimidin-4-amine], the pIC50 is > 7.52.

For the compound `NC(=O)NCc1cc2c(C(N)=O)cccc2n1-c1nc2c(c(NCc3ccccc3)n1)CCCC2` [compound 127, 1-[4-(benzylamino)-5,6,7,8-tetrahydroquinazolin-2-yl]-2-[(carbamoylamino)methyl]-1H-indole-4-carboxamide], the pIC50 was > 7.00.

Turning to `Cc1cc2c(C(=N)N)cccc2n1-c1nc2c(c(NCc3ccccc3)n1)COCC2` [compound 119], the pIC50 is > 6.00.

In the case of `Cc1cc2ccccc2n1-c1nc2c(c(NCc3ccccc3)n1)COC2` [compound 18, N-benzyl-2-(2-methyl-1H-indol-1-yl)-5H,7H-furo[3,4-d]pyrimidin-4-amine], the pIC50 was > 6.52.
